No end group written: not given here.
Assays:
mice = experiment: Effects of central ghrelin injection on alcohol intake and alcohol preference, two-bottle free choice paradigm; assay type: in vivo; conditions: for average alcohol intake / average alcohol preference: ghrelin 2 μg in 1 μl into third ventricle; for average alcohol intake: baseline 1.65; for average alcohol preference: day before 26.76%
Source text: The following studies sought to determine whether ghrelin increases alcohol intake and the preference for alcohol in mice selected on the basis of their spontaneous level of alcohol intake. We tested the effects of ghrelin injection into the brain ventricles on alcohol consumption and alcohol preference in mice.
All mice used in this study were selected on the basis of their spontaneously medium level of alcohol intake. Initially, the mice were able to choose freely between alcohol solution (10%) and water. When they had established a stable alcohol intake (approximately 20-80% of their total fluid intake was alcohol) they began a training schedule that gave them access to 10% alcohol for 90 min ever day over two weeks. The mice were then implanted with a cannula into the third ventricle of the brain for subsequent injection. During a baseline period, spontaneous alcohol intake was measured during a 90 min period average for 3 measurements taken on 3 days using a two-bottle free choice paradigm (i.e. water or 10% alcohol). The same protocol was used after ghrelin/vehicle injection on the experimental days.

[1] = system: ghrelin receptor (GHS-R1A) knockout mice; conditions: alcohol 1.0 g/kg ip; GHSR knockout mice vs wt/wt
Experimental: The mice were implanted with a microdialysis probe in the nucleus accumbens for measurements of extracellular dopamine levels. […] The mice were connected to the microdialysis apparatus via a liquid swivel (CMA/Microdialysis AB, Stockholm, Sweden) and were able to move freely during the experiment. After one hour of habituation to the microdialysis perfusion set up, perfusion samples (30 μl) were collected every 20 minutes. Five samples were collected prior to the first alcohol challenge. The baseline dopamine level is defined as the averaged concentration of the three consecutive samples before the first alcohol challenge. Thereafter vehicle (saline, ip) was administered at time 0 minutes.

[2] = system: ghrelin receptor (GHS-R1A) knockout mice; conditions: alcohol 1.0 g/kg i.p.; GHS-R knockout mice vs wildtype; P<0.05
Source text: Locomotor activity was registered in eight sound attenuated, ventilated and dimly lit locomotor boxes (420×420×200 mm, Plexiglas®). Five by five rows of photocell beams at the floor level of the box allowed a computer-based system to register the activity of the mice. The mice were allowed to habituate to the environment in the box for one hour before drug challenge and initialization of the experiment. […] Locomotor activity was defined as the accumulated number of new photocell beams interrupted during a 60-minute period.

[3] = intraventricular administration, p<0.05, paired t-test

Compound	average alcohol intake (mice; experiment day one) [g/kg/1.5 hr]	average alcohol preference (mice; experiment day one) [%]	average alcohol intake (mice; experiment day two) [g/kg/1.5 hr]	average alcohol preference (mice; experiment day two) [%]	effect on alcohol intake compared to the day before the experiments (mice; [3])	effect on alcohol preference compared to the day before the experiments (mice; [3])	alcohol-induced accumbal dopamine release [1]	alcohol-induced locomotor activity [2]
ghrelin (GSSFLSPEHQRVQQRKESKKPPAKLQPR; ends and bridges not checked; UniProt Q9UBU3 24-51, looked up) [endogenous ligand for GHS-R, secreted by stomach tissue; purchasable from Bachem]	1.72	31.72	2.15	33.70	increased the alcohol intake	significant increase of alcohol preference		
CCO [alcohol]							blunted	do not show an alcohol-induced locomotor activity

— US20100093638A1, “TREAMENT FOR CHEMICAL SUBSTANCE ADDICTION” (priority 2007, published 2010)
